{"source": "paper PMC7421900", "about": "“Structural, in silico, and functional analysis of a Disabled-2-derived peptide for recognition of sulfatides” (Scientific Reports, 2020)", "key": {"Dab2 SBP [1]": {"biological_target": "T1, Dab2 SBP (Homo sapiens, UniProt P98082)", "T1 construct": "pGEX6P1; vector residues GPLGS remain at N-terminus of cleaved peptide", "T1 sequence (P98082 24-58)": "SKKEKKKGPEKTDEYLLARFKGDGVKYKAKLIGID", "experiment": "SPR, L1 sensorchip, sulfatide liposomes captured", "type": "binding", "conditions": "apparent KD; peptide 1-80 µM over 100-nm DPPC:DPPE:cholesterol:sulfatide (1:1:1:4) liposomes; pH 7.4, 100 mM NaCl, room temperature; brain sulfatides of mixed acyl chains"}, "Dab2 SBP [2]": {"biological_target": "T2, Dab2 SBP (Homo sapiens, UniProt P98082, Y38A)", "T2 construct": "pGEX6P1; vector residues GPLGS remain at N-terminus of cleaved peptide", "T2 sequence (P98082 24-58 Y38A)": "T1 sequence (P98082 24-58) with Y15A", "experiment": "SPR, L1 sensorchip, sulfatide liposomes captured", "type": "binding", "conditions": "apparent KD; peptide 1-80 µM over 100-nm DPPC:DPPE:cholesterol:sulfatide (1:1:1:4) liposomes; pH 7.4, 100 mM NaCl, room temperature; brain sulfatides of mixed acyl chains"}}, "note": "Where a chain is given by its changes, count along the chain named."}
{"substance": "sulfatide", "values": [{"measurement": "Kd", "setting": "Dab2 SBP [1]", "value": "49.8 ± 5.4", "unit": "µM"}, {"measurement": "Kd", "setting": "Dab2 SBP [2]", "value": "77 ± 6.6", "unit": "µM"}]}
